# Several values for one entry are separate records, joined by “and”; a condition that tells them apart may be missing. Identical values can stand only once. Counter-ions that a name gives are not always drawn.
# Key:
# [1] = oil/water partition coefficient; Table 1; ref PubChem; cited from earlier work
# HBMEC cells = assay: Blood–brain barrier transport study in HBMEC Transwell monolayer; conditions: for AerExt Te (%) ± SD 2 h / AerExt Te (%) ± SD 4 h / AerExt Te (%) ± SD 24 h: AerExt 40 µg mL^−1 apical; for AerExt Te (%) ± SD 2 h / AerExt Te (%) ± SD 4 h / AerExt Te (%) ± SD 24 h / RootExt Te (%) ± SD 2 h / RootExt Te (%) ± SD 4 h / RootExt Te (%) ± SD 24 h: n.q. = not quantified in the basolateral compartment; for RootExt Te (%) ± SD 2 h / RootExt Te (%) ± SD 4 h / RootExt Te (%) ± SD 24 h: RootExt 20 µg mL^−1 apical; for crossing of the HBMEC-BBB: AerExt 40 µg mL^−1 / RootExt 20 µg mL^−1, 2, 4, 24 h; for abundance in the apical compartment relative to the basolateral compartment (times higher) / Te of newly formed sulfated metabolites: after AerExt 40 µg mL^−1 treatment of HBMEC; for Te of newly formed sulfated metabolites: tentatively identified metabolites; for AerExt Te (%) ± SD 24 h / RootExt Te (%) ± SD 24 h / Te of newly formed sulfated metabolites: 24 h
# Method: After the toxicity evaluation, the HBMEC cell line was also used as a simplified in vitro model of the BBB endothelium. Cells were seeded at a density of 1.6 × 10^5 cells/cm^2 in 12-well Transwell® plates (Corning Costar Corp., Corning, USA) with a pore diameter of 0.4 μm, pre-coated with type I rat tail collagen (100 μg mL^−1) [55]. The culture medium was renewed every 2 days until a monolayer cell structure was formed (see Supplementary Figure S2), and transport experiments were initiated after 10 days. In transport experiments, the medium in the apical (upper) compartment of the Transwell system was removed, and 0.5 mL of AerExt or RootExt at a concentration of 40 μg mL^−1 and 20 μg mL^−1, respectively, was added to these compartments (applied in duplicate). Also, a medium containing 0.4% (v/v) ethanol was used as control group. The basolateral (lower) compartments were filled with 1.5 mL of fresh culture medium. The cells were incubated under these conditions for 2, 4, and 24 h.
# At the end of the incubation periods, media samples were collected from both chambers and lyophilized using a freeze-drying system from Martin Christ (Osterode am Harz, Germany). The samples were stored at −80 °C until analysis. The collected samples were subjected to chemical analyses to evaluate the ability of bioactive compounds contained in the extracts to pass through the cell monolayer.
# The transport efficiency (Te) of bioactive substances was calculated based on Equation (3), described by [56]:Te (%) = CLower/CUpper × 100(3)
# This calculation was performed to understand whether the compound crosses the cell layer and how efficiently it is transported.
# For this purpose, 0.2 mL of cold water (H2O) was added to the samples, and the samples were vortexed for 10 s. Then, 0.8 mL of cold methanol was added and vortexed again for 10 s. Then, the mixture was centrifuged at 14,000 rpm for 5 min, and the supernatant was carefully transferred to a 1.5 mL Eppendorf tube and dried in a SpeedVac device at 40 °C and 13 bar pressure. Finally, the dried samples were resuspended in 25 μL of pure ethanol for their subsequent analysis.
# For HPLC-Q-TOF MS/MS analysis, aliquots of 2 μL were injected into an HPLC model 1290 coupled to a Q-TOF series 6540 (Agilent Technologies, Waldbronn, Germany). For GC-Q-TOF MS analysis, aliquots of 1 μL were injected with a split ratio of 1:10 into a GC model 7890B coupled to a Q-TOF series 7200 (Agilent Technologies, Waldbronn, Germany). The HPLC-MS and GC-MS chromatograms were processed using the Agilent Mass Hunter Qualitative software (version B.10.0) to verify the retention time and exact mass of the compounds previously reported by us [25] and to extract their peak area to calculate the BBB permeability.
# [2] = Parallel artificial membrane permeability assay for the blood–brain barrier (PAMPA-BBB)
# Method: The permeability of bioactive compounds from AerExt and RootExt across the BBB was assessed using the PAMPA-BBB assay, following the methodology described by [11]. Firstly, the BBB solution was prepared by dissolving 8 mg of PBL and 4 mg of cholesterol in 600 μL of n-dodecane. The initial donor solution was prepared by mixing 1 mL of AerExt or RootExt (at 10 mg mL^−1 in EtOH) with 1 mL of buffer (PBS, pH = 7.4, 10 mM). The filter membrane of the donor plate was coated with 5 μL of BBB solution. The acceptor plate was filled with 350 μL of buffer, and the donor plate was carefully placed on top of the acceptor plate to form a “sandwich-like” assembly. Subsequently, 350 μL of the donor solution was added to the donor plate, which was then covered and incubated at 37 °C for 4 h in the dark. After the incubation time, 300 μL of the solution was collected from each plate, transferred into separate vials, and evaporated using a SpeedVac system at 40 °C under 13 mbar pressure. The dried acceptor and donor solutions were dissolved in 50 μL of pure EtOH before being subjected to HPLC-Q-TOF-MS/MS and GC-Q-TOF-MS analysis. Permeability (Pe) across the PAMPA-BBB of the bioactive compound was calculated according to Equation (1) [54], with modifications in concentration rates.Pe = −ln[1 − CA(t)/Cequilibrium]/(A × (1/VD + 1/VA) × t)(1)
# Cequilibrium was calculated according to Equation (2):Cequilibrium = [CD(t) × VD + CA(t) × VA]/(VD + VA)(2)
# The HPLC-MS and GC-MS chromatograms were processed using the Agilent Mass Hunter Qualitative software (version B.10.0) to verify the retention time and exact mass of the compounds previously reported by us [25] and to extract their peak area to calculate the BBB permeability.
AerExt Te (%) ± SD 2 h (HBMEC cells),AerExt Te (%) ± SD 4 h (HBMEC cells),AerExt Te (%) ± SD 24 h (HBMEC cells),RootExt Te (%) ± SD 2 h (HBMEC cells),RootExt Te (%) ± SD 4 h (HBMEC cells),RootExt Te (%) ± SD 24 h (HBMEC cells),Compound,log p [1],further results
–,–,–,–,–,–,C[C@@H]1CC[C@H]2C(C(=O)O)=C[C@@H]3[C@@H](O)C(C)(C)C[C@@]132 [Pentalenic acid],2.7,–
23.3 ± 3.1%,18.5 ± 0.3%,49.4 ± 5.9%,62.1 ± 21.9%,57.5 ± 1.7%,184.6 ± 23.0%,O=Cc1ccc(O)cc1 [4-hydroxybenzaldehyde],–,–
–,–,–,–,–,–,apigenin sulfate,–,abundance in the apical compartment relative to the basolateral compartment (times higher) (HBMEC cells): ~40 times; Te of newly formed sulfated metabolites (HBMEC cells): 2.7%
1.9 ± 0.2%,1.9 ± 0.2%,19.8 ± 10.3%,n.q.,n.q.,n.q.,COc1cc(/C=C/C(=O)O)ccc1O [Ferulic acid],–,"AerExt Te (%) ± SD 2 h (HBMEC cells; listed as ferulic acid): 2%; AerExt Te (%) ± SD 24 h (HBMEC cells; listed as ferulic acid): 20%; RootExt log Pe ([2]; compound within RootExt donor solution, 37 °C, 4 h, PBS pH 7.4, n.q. = not quantified in the acceptor plate): n.q."
n.q.,n.q.,n.q.,n.q.,n.q.,30.5 ± 6.6%,COc1cc2ccc(=O)oc2c(OC)c1O [Isofraxidin],1.5,–
–,–,–,–,–,–,COc1cc(/C=C/C(=O)O)ccc1OS(=O)(=O)O [ferulic acid sulfate],–,abundance in the apical compartment relative to the basolateral compartment (times higher) (HBMEC cells): ~40 times; Te of newly formed sulfated metabolites (HBMEC cells): 2.3%
–,–,–,–,–,–,Cc1ncsc1CCO [4-methyl-5-thiazoleethanol],0.8,–
–,–,–,–,–,–,CCOC(=O)/C=C/c1ccc(O)c(O)c1 [Ethyl caffeate],2.6,–
18.8 ± 2.3%,9.1 ± 1.2%,11.0 ± 1.3%,31.8 ± 8.0%,36.3 ± 10.9%,164.8 ± 21.0%,COc1ccc(O)c(C=O)c1 [2-hydroxy-5-methoxybenzaldehyde],1.8,–
12.2 ± 0.1%,25.1 ± 1.4%,56.5 ± 6.5%,15.4 ± 2.6%,20.1 ± 12.0%,187% and 187.3 ± 12.5%,C=C(C)[C@@H]1CC[C@@]2(C)CCC(=O)C(C)=C2C1 [α-cyperone],3.8,–
–,–,–,–,–,–,O=c1cc(-c2ccc(O)c(O)c2)oc2cc(O)cc(O)c12 [Luteolin],–,"crossing of the HBMEC-BBB (HBMEC cells): could not cross the HBMEC-BBB; Papp at 4 h ([2]; PAMPA, pH 7.4): 26.3 ×10⁻⁶ cm/s"
6.2 ± 0.7%,12.1 ± 0.8%,12.4 ± 0.8%,–,–,–,CC1(C)C[C@H](O)C[C@@]2(C)OC(=O)C=C12 [Loliolide],1.0,–
–,–,–,–,–,–,C=CCc1cc(OC)c(OC)c(OC)c1 [Elemicin],2.5,–
–,–,–,–,–,–,"CC12CCC3C(CC3(C)C)C(C)(CCC1=O)O2 (stereo not drawn) [3,7-epoxycaryophyllan-6-One]",2.8,–

Compound,AerExt Te (%) ± SD 2 h (HBMEC cells),AerExt Te (%) ± SD 4 h (HBMEC cells),AerExt Te (%) ± SD 24 h (HBMEC cells),RootExt Te (%) ± SD 2 h (HBMEC cells),RootExt Te (%) ± SD 4 h (HBMEC cells),RootExt Te (%) ± SD 24 h (HBMEC cells),log p [1],further results
COc1cc2ccc(=O)oc2cc1O [7-hydroxy-6-methoxycoumarin],0.6 ± 0.2%,1.9 ± 0.1%,6.1 ± 1.5%,n.q.,n.q.,n.q.,1.5,–
c1ccc2c(c1)[nH]c1cnccc12 [Norharman],2.3 ± 0.1%,5.3 ± 1.4%,4.1 ± 0.2%,–,–,–,3.2,–
O=Cc1ccc(O)c(O)c1 [Protocatechuic aldehyde],n.q.,n.q.,n.q.,n.q.,n.q.,–,1.3,crossing of the HBMEC-BBB (HBMEC cells): could not cross the HBMEC-BBB

# From publication PMC12386606, “Evaluation of the In Vitro Blood–Brain Barrier Transport of Ferula persica L. Bioactive Compounds” (International Journal of Molecular Sciences, 2025)
